For this experiment, the target named is HsClpP (Homo sapiens, UniProt Q16740). Briefly: HsClpP enzyme hydrolysis of short peptide substrate AC-WLA-AMC. The conditions noted are these: promoting hydrolysis of short peptide substrate by HsClpP, relative to blank control.
Chain of HsClpP (Q16740 57-277): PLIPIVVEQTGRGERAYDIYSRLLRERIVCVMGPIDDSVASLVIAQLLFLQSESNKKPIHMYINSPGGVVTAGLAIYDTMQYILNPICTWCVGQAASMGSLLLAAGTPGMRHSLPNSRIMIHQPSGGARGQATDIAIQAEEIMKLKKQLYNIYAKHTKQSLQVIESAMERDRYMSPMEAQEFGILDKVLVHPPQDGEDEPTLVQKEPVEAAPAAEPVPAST

Description: This study evaluated the regulatory activity of the compounds on HsClpP by examining the hydrolysis effects of HsClpP protein on the AC-WLA-AMC substrate . […] The small molecules and the HsClpP protein solution were added to a flat-bottomed black 96-well plate, with three replicate wells for each group. […] DMSO was used as a negative control instead of small molecules. The multiple of readings at different concentrations against the readings of DMSO group was recorded as an index for evaluation of hydrolysis activity. . . . GraphPad Prism was used to plot the obtained multiple values and calculate the EC50 values.

Turning to `O=c1nc2n(c3c1CN(Cc1ccccc1)CC3(F)F)CCN2Cc1ccc(F)c(Br)c1` [Compound 49, 7-Benzyl-9,9-difluoro-3-(3-bromo-4-fluorobenzyl)-2,3,6,7,8,9-hexahydroimidazo[1,2-a]pyrido[3,4-e]pyrimidin-5(1H)-one], the “Regulatory efficacy 1 μM” value is listed as “+ +” and the “Regulatory efficacy 10 μM” value was “+ +”.
On to `N#Cc1cccc(CN2Cc3c(n4c(nc3=O)N(Cc3ccc(F)c(F)c3)CC4)C(F)(F)C2)c1` [Compound 50, 3-((3-(3,4-difluorobenzyl)-9,9-difluoro-5-oxo-2,3,6,7,8,9-hexahydroimidazo[1,2-a]pyrido[3,4-e]pyrimidin-7(6H)-yl)methyl)benzonitrile], for which the “Regulatory efficacy 1 μM” value is recorded as “+ +” and the “Regulatory efficacy 10 μM” value is given as “+ +”.
On to `COC(=O)c1cccc(CN2CCn3c2nc(=O)c2c3C(F)(F)CN(Cc3cccc(C#N)c3)C2)c1` [Compound 51], for which the “Regulatory efficacy 1 μM” value is listed as “+ +” and the “Regulatory efficacy 10 μM” value is “+ +”.
In the case of `N#Cc1cccc(CN2Cc3c(n4c(nc3=O)N(Cc3ccccc3)CC4)C(F)(F)C2)c1` [Compound 52, 3-((3-benzyl-9,9-difluoro-5-oxo-2,3,6,7,8,9-hexahydroimidazo[1,2-a]pyrido[3,4-e]pyrimidin-7(6H)-yl)methyl)benzonitrile], the “Regulatory efficacy 1 μM” value was “+ +” and the “Regulatory efficacy 10 μM” value is reported as “+ +”.
As for `N#Cc1cccc(CN2Cc3c(n4c(nc3=O)N(Cc3cccc(F)c3)CC4)C(F)(F)C2)c1` [Compound 53, 3-((3-(3-fluorobenzyl)-9,9-difluoro-5-oxo-2,3,6,7,8,9-hexahydroimidazo[1,2-a]pyrido[3,4-e]pyrimidin-7(6H)-yl)methyl)benzonitrile], the “Regulatory efficacy 1 μM” value is recorded as “+ +” and the “Regulatory efficacy 10 μM” value is reported as “+ +”.
On to `N#Cc1cccc(CN2Cc3c(n4c(nc3=O)N(Cc3ccc(F)c(Br)c3)CC4)C(F)(F)C2)c1` [Compound 54, 3-((3-(3-bromo-4-fluorobenzyl)-9,9-difluoro-5-oxo-2,3,6,7,8,9-hexahydroimidazo[1,2-a]pyrido[3,4-e]pyrimidin-7(6H)-yl)methyl)benzonitrile], for which the “Regulatory efficacy 1 μM” value was “+ +” and the “Regulatory efficacy 10 μM” value is listed as “+ +”.
Consider `CC(C)CCN1CCn2c1nc(=O)c1c2C(F)(F)CN(Cc2cccc(C#N)c2)C1` [Compound 55, 3-((9,9-difluoro-3-isopentyl-5-oxo-2,3,6,7,8,9-hexahydroimidazo[1,2-a]pyrido[3,4-e]pyrimidin-7(6H)-yl)methyl)benzonitrile], for which the “Regulatory efficacy 1 μM” value was “+ +” and the “Regulatory efficacy 10 μM” value is reported as “+ +”.
On to `Cc1ccc(CN2CCn3c2nc(=O)c2c3C(F)(F)CN(Cc3cccc(C#N)c3)C2)cc1` [Compound 56, 3-((9,9-difluoro-3-(4-methylbenzyl)-5-oxo-2,3,6,7,8,9-hexahydroimidazo[1,2-a]pyrido[3,4-e]pyrimidin-7(6H)-yl)methyl)benzonitrile], for which the “Regulatory efficacy 1 μM” value is recorded as “+ +” and the “Regulatory efficacy 10 μM” value is reported as “+ +”.
Regarding `N#Cc1cccc(CN2Cc3c(n4c(nc3=O)N(Cc3ccc(Cl)c(Cl)c3)CC4)C(F)(F)C2)c1` [Compound 57, 3-((9,9-difluoro-3-(3,4-dichlorobenzyl)-5-oxo-2,3,6,7,8,9-hexahydroimidazo[1,2-a]pyrido[3,4-e]pyrimidin-7(6H)-yl)methyl)benzonitrile], the “Regulatory efficacy 1 μM” value is listed as “+ +” and the “Regulatory efficacy 10 μM” value is recorded as “+ +”.
For `Cc1cccc(CN2CCn3c2nc(=O)c2c3C(F)(F)CN(Cc3cccc(C#N)c3)C2)c1` [Compound 58, 3-((9,9-difluoro-3-(3-methylbenzyl)-5-oxo-2,3,6,7,8,9-hexahydroimidazo[1,2-a]pyrido[3,4-e]pyrimidin-7(6H)-yl)methyl)benzonitrile], the “Regulatory efficacy 1 μM” value was “+ +” and the “Regulatory efficacy 10 μM” value was “+ +”.

The values above are taken from patent US20240287071A1, “CLASS OF IMIDAZOLIDINOPYRIMIDONE COMPOUNDS AND USE THEREOF IN TREATMENT OF HSCLPP-MEDIATED DISEASES” (SICHUAN UNIVERSITY, priority 2021, published 2024).
